pIC50: −log10 of the molar value.
Assays:
[1] = molecular target: T1, NEIL1 (Homo sapiens, UniProt Q96FI4); test: qHTS fluorogenic glycosylase/AP lyase assay, 1536-well, Sp/Gh substrate; type: biochemical; details: 5 concentrations
T1 construct: made in house
Procedure: The fluorogenic assay was miniaturized to 4 µL in 1536-well black solid plates by optimization of the enzyme and Sp/Gh substrate concentrations. Briefly, 3 µL of 25 nM NEIL1 were dispensed into each well of a 1536-well plate (except buffer in columns 3 and 4 as a negative control). Compounds (DMSO solutions) and control (DMSO only) (23 nL) were transferred to the plate via Kalypsys pintool. The plate was incubated for 15 min at room temperature, and then 1 µL of the Sp/Gh-containing DNA substrate (75 nM final concentration) was added to start the reaction. The plate was immediately transferred into the ViewLux reader for the kinetic fluorescence read. Initial rate data were normalized against uninhibited and no-enzyme controls and the resulting percent activities as a function of compound concentration were fitted using the Hill equation.
Having established the general principle for a glycosylase screening assay, further assay development was undertaken to enable HTS in which the reaction volumes were reduced by 5-fold to a total of 4 µL. Initially, the library of pharmacologically active compounds (LOPAC^1280) was screened for inhibitors of NEIL1 as a determination of the feasibility of this high-throughput method. […] All compounds were screened at 5 different concentrations that allowed for the initial estimation of inhibitory potency (IC50) values, as well as an evaluation of the shape of the response curves. In addition to the anticipated inhibitors (known DNA intercalators, such as ellipticine (IC50 = 2 µM)) and other small molecules that have been previously established to be promiscuous inhibitors (such as aurintricarboxylic acid (IC50<1 µM)), one interesting hit from this screen was CGP-74514A (NCGC ID is NCGC00015229) (Figure 5A). CGP-74514A is a known small molecule inhibitor of Cdk1 in which the structure of this molecule is based on a purine ring backbone.

[2] = molecular target: T1, NEIL1; test: gel-based incision assay of oligodeoxynucleotides containing site-specific base lesions; type: biochemical; details: polyacrylamide gel, reaction quenched at 20 min
Procedure: The 384-well fluorogenic assay was carried out in a 20 µL reaction mixture in 20 mM Tris-HCl pH 8.0, 100 mM KCl, and 0.1% BSA, with 5 nM active enzyme and 50 nM substrate. Possible inhibitors were incubated with the enzyme for at least 5 min at room temperature in a black, low-volume 384-well plate before addition of an equal volume of substrate to start the reaction. The plates were spun for 30 s at 1000 rcf to remove bubbles. The reactions were incubated at 37°C and fluorescence data collected on an Infinite M200 (Tecan, Mannedorf, Switzerland) equipped with standard optics (excitation filter 525 nm, and emission filter 598 nm). For the gel-based assay, reactions were initiated as described for the fluorogenic assay, but quenched with 20 µL 95% formamide at 20 min. The products were separated by electrophoresis through a 15% polyacrylamide gel containing 8 M urea and visualized by a Typhoon scanner (GE Life Sciences, Piscataway, NJ). The fraction of cleaved product was measured using ImageQuant software and analyzed using GraphPad Prism 6. […]

[3] = tested on: NEIL1-depleted cells; set-up: method as in PMID 21131780; details: minimally toxic doses, siRNA NEIL1 depletion; cited from earlier work
[4] = molecular target: T1, NEIL1; test: NEIL1 excision of FapyAde and FapyGua from γ-irradiated calf thymus DNA by GC-MS/MS; type: biochemical; details: 10 µL of 2 mM inhibitor in DMSO, 1 h 37°C
Procedure: The enzymatic activity of NEIL1 was measured using gas chromatography/isotope-dilution tandem mass spectrometry (GC-MS/MS) and calf thymus DNA samples γ-irradiated at 20 Gy as described, [30]. Aliquots of FapyAde-^13C,^15N2 and FapyGua-^13C,^15N2 were added as internal standards to 50 µg of DNA samples. After drying in a SpeedVac, DNA samples were dissolved in 50 µL of an incubation buffer consisting of 50 mM phosphate buffer (pH 7.4), 100 mM KCl, 1 mM EDTA, and 0.1 mM dithiothreitol, and then incubated with 2 µg NEIL1 for 1 h at 37°C without any inhibitor, DMSO alone, or with 10 µL of an inhibitor solution in DMSO (2 mM). After incubation, 150 µL of cold ethanol was added. The samples were kept at −20°C for 1 h and then centrifuged with 14,000 g for 30 min at 4°C. The supernatant fractions were separated and ethanol removed in a SpeedVac under vacuum. The samples were then frozen in liquid nitrogen and lyophilized overnight. To fully remove DMSO that would interfere with GC-MS/MS analysis, 500 µL water were added to the samples followed by lyophilization overnight. This procedure was repeated twice. Dried samples were derivatized and analyzed by GC-MS/MS as described, [30]. For each data point, three independently prepared samples were used.
Although Gh and Sp are excellent substrates for NEIL1, these are likely not to be the biologically relevant substrates. Thus, to determine if the compounds that were identified above were effective in the inhibition of NEIL1 against its biologically relevant substrates FapyAde and FapyGua, [6], γ-irradiated calf thymus DNA was used as a substrate. The excision by NEIL1 of these substrates from DNA was measured by GC-MS/MS with isotope-dilution. Figure 8 illustrates the excision of FapyAde and FapyGua by NEIL1 from γ-irradiated calf thymus DNA in the absence or presence of inhibitors. […] Some inhibition by DMSO alone was also observed when compared with excision by NEIL1 alone (p = 0.01). However, when compared to DMSO, the inhibitions by P2, P6, P7 and P8 were highly significant (p<0.005). […] A p-value<0.05 was assumed to correspond to statistical significance.

T1 sequence (Q96FI4 whole entry): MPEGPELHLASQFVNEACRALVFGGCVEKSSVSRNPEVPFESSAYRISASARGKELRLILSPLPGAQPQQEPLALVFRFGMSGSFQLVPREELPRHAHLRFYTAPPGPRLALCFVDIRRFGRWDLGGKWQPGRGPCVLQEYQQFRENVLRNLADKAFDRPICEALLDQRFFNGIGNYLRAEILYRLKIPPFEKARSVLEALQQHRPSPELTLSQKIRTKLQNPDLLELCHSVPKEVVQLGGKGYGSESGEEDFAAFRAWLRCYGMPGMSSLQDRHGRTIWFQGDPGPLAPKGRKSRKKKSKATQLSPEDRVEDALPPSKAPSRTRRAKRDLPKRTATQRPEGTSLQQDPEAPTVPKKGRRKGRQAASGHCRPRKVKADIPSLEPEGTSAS

Row | pIC50 [1] | pIC50 [2] | inhibition of NEIL1 excision of FapyAde and FapyGua [4] | SMILES | increased cytotoxicity in NEIL1-depleted cells [3] [fold]
1 | 5.44 | < 4.30 | – | N#Cc1nc(Nc2cc(F)cc(F)c2)c2ncn(CCN3CCCC3)c2n1 [Purine P1] | –
2 | 4.80 | < 4.30 | – | CN(C)CCNc1ncnc2c1ncn2[C@H]1CN(Cc2ccc(-c3ccccc3)cc2)C[C@@H](CO)O1 [Purine P16] | –
3 | 5.10 | < 4.30 | – | CC(C)n1cnc2c(NCc3ccccc3)nc(NCc3ccccc3)nc21 [Purine P33] | –
4 | – | – | – | Cc1nc2ccc(CN(C)c3ccc(C(=O)N[C@@H](CCC(=O)O)C(=O)O)s3)cc2c(=O)[nH]1 [RTX, raltitrexed] | 9
5 | 4.60 | < 4.30 | – | Cc1ccc(NC(=O)C2CCCN(c3ncnc4c3nc3n4CCCCC3)C2)cc1Cl (stereo not shown) [Purine P22] | –
6 | 4.90 | < 4.30 | – | CC(C)n1cnc2c(N(C)c3ccccc3)nc(N(CCN(C)C)Cc3ccccc3)nc21 [Purine P13] | –
7 | 4.80 | < 4.30 | – | O=C(C1CCCN(c2ncnc3c2nc2n3CCCCC2)C1)N1CCN(c2cccc(Cl)c2)CC1 (stereo not shown) [Purine P17] | –
8 | – | – | – | CN(Cc1cnc2nc(N)nc(N)c2n1)c1ccc(C(=O)N[C@@H](CCC(=O)O)C(=O)O)cc1 [MTX, methotrexate] | 10
9 | 5.15 | < 4.30 | – | Cc1ccccc1CN1CCC(CNC(=O)C2CCCN(c3ncnc4c3nc3n4CCCCC3)C2)CC1 (stereo not shown) [Purine P31] | –
10 | 6.22 | < 4.30 | – | COc1ccc(CNc2nc(NCc3ccc(OC)cc3)c3[nH]cnc3n2)cc1 [Purine P40] | –
11 | 4.85 | < 4.30 | – | CC(C)CNc1ncnc2c1ncn2[C@H]1CN(Cc2ccc(-c3ccccc3)cc2)C[C@@H](CO)O1 [Purine P15] | –
12 | 6.22 | < 4.30 | – | CC(=O)c1ccc(N2CCN(C(=O)C3CCCN(c4ncnc5c4nc4n5CCCCC4)C3)CC2)cc1 (stereo not shown) [Purine P27] | –
13 | 5.10 | < 4.30 | – | N#Cc1nc(Nc2cc(F)cc(F)c2)c2ncn(CCCN3CCCC3)c2n1 [Purine P5] | –
14 | 4.65 | < 4.30 | – | Cc1ccc(C(=O)Nc2cccc(C(F)(F)F)c2)cc1Nc1ncnc2nc[nH]c12 [Purine P20] | –
15 | 4.70 | < 4.70 | no inhibition | O=C(C1CCN(c2ncnc3c2nc2n3CCCCC2)CC1)N1CCN(c2cccc(Cl)c2)CC1 [Purine P19] | –
16 | 6.10 | < 4.30 | – | CCOCCCNc1ncnc2c1nc1n2CCCC1 [Purine P42] | –
17 | 4.50 | < 4.70 | – | Cc1cc(C)c(CN2CCN(C(=O)Cn3cnc4c(NCc5ccccc5)ncnc43)CC2)c(C)c1 [Purine P25] | –
18 | 5.49 | < 4.30 | – | O=C(OCC1OC(n2cnc3c(N(C(=O)c4ccccc4)C(=O)c4ccccc4)ncnc32)C(O)C1F)c1ccccc1 (stereo not shown) [Purine P3] | –
19 | > 6.00 | – | – | O=C(O)C1=CC(=C(c2ccc(O)c(C(=O)O)c2)c2ccc(O)c(C(=O)O)c2)C=CC1=O [aurintricarboxylic acid, reference compound] | –

Row | pIC50 [1] | pIC50 [2] | inhibition of NEIL1 excision of FapyAde and FapyGua [4] | SMILES | increased cytotoxicity in NEIL1-depleted cells [3] [fold]
20 | 6.22 | < 4.30 | – | Cc1cccc(OCCSc2nc3c([nH]2)c(=N)ncn3Cc2ccccc2)c1 [Purine P39] | –
21 | – | – | – | Nc1nc(N)c2nc(CNc3ccc(C(=O)N[C@@H](CCC(=O)O)C(=O)O)cc3)cnc2n1 [AMT, aminopterin] | 7
22 | 6.15 | < 4.70 | – | CCc1cccc(NC(=O)C2CCCN(c3ncnc4c3nc3n4CCCCC3)C2)c1 (stereo not shown) [Purine P28] | –
23 | 6.10 | < 4.30 | – | O=C(C1CCCN(c2ncnc3c2nc2n3CCCCC2)C1)N1CCN(c2ccc(F)cc2)CC1 (stereo not shown) [Purine P41] | –
24 | 6.05 | < 4.30 | – | CC(=O)OC[C@@H]1CN(Cc2ccccc2)C[C@H](n2cnc3c(NCc4ccc(F)cc4)ncnc32)O1 [Purine P29] | –
25 | 5.00 | < 4.30 | – | COc1cccc(-c2cc(CNC(=O)[C@H]3O[C@@H](n4cnc5c(N)ncnc54)[C@H](O)[C@@H]3O)no2)c1 [Purine P34] | –
26 | 4.75 | < 4.30 | – | Cc1cc(/C=C/C#N)cc(C)c1Nc1nc(Nc2ccc3n[nH]nc3c2)c2[nH]cnc2n1 [Purine P18] | –
27 | 5.74 | < 4.30 | – | CNC(=O)[C@H]1O[C@H](n2cnc3c(NCc4cccc(I)c4)ncnc32)[C@@H](O)[C@@H]1O [Purine P30] | –
28 | 4.81 | < 4.30 | – | Nc1nc(N)c2[nH]c(-c3ccccc3)nc2n1 [Purine P36] | –
29 | 5.15 | 4.71 | – | CC(C)[C@H](CO)N(Cc1cccc(F)c1)c1nc(Nc2cccc(Cl)c2)c2ncn(C(C)C)c2n1 [Purine P32] | –
30 | 4.90 | < 4.30 | – | Nc1ncnc2c1ncn2[C@@H]1O[C@H](CNCc2cccc(C#Cc3ccccc3)c2)[C@@H](O)[C@H]1O [Purine P14] | –
31 | 5.00 | < 4.30 | – | COc1ccccc1CNC(=O)C1CCN(c2ncnc3c2nc2n3CCCCC2)CC1 [Purine P37] | –
32 | 5.00 | < 4.30 | – | CCNc1nc(C#N)nc2c1ncn2-c1cccc(Cl)c1 [Purine P10] | –
33 | 6.52 | < 4.30 | – | OC[C@@H]1CN(Cc2ccccc2)C[C@H](n2cnc3c(N4CCN(c5ccccc5)CC4)ncnc32)O1 [Purine P38] | –
34 | 4.95 | < 4.70 | – | C=CC(=O)N1CCCC(Nc2nc(Nc3ccc(N(C)C(=O)CC)cc3C)nc3nc[nH]c23)C1 (stereo not shown) [Purine P12] | –
35 | – | – | – | Cc1ccc2nc(N)[nH]c(=O)c2c1Sc1ccncc1 [NOL, nolatrexed] | 5
36 | 4.50 | < 4.70 | – | c1ccc(COc2ccc(Nc3ncnc4nc[nH]c34)cc2)cc1 [Purine P26] | –
37 | 4.95 | < 4.30 | – | COc1ccc2[nH]cc(CCNC(=O)/C=C/[C@H]3O[C@@H](n4cnc5c(NC(=O)c6ccccc6)ncnc54)[C@H](O)[C@@H]3O)c2c1 [Purine P35] | –
